Measurements published in PMC8217266 (Clinical Pharmacology and Therapeutics, 2021).

What was measured:
[1] = tested on: transporters at major organ sites; assay: Prediction of transporter-mediated inhibition / DDI potential; parameters: species or system human; settings: of 11 transporters; FDA criteria
[2] = molecular target: T1, human OATP1B1 (Homo sapiens, UniProt Q9Y6L6); settings: for potency difference of the inhibitor for [3H]-EG vs [3H]-ES as OATP1B1 probes: inhibits EG at one-tenth (or lower) the concentration that inhibits ES
T1 sequence (Q9Y6L6 1-691): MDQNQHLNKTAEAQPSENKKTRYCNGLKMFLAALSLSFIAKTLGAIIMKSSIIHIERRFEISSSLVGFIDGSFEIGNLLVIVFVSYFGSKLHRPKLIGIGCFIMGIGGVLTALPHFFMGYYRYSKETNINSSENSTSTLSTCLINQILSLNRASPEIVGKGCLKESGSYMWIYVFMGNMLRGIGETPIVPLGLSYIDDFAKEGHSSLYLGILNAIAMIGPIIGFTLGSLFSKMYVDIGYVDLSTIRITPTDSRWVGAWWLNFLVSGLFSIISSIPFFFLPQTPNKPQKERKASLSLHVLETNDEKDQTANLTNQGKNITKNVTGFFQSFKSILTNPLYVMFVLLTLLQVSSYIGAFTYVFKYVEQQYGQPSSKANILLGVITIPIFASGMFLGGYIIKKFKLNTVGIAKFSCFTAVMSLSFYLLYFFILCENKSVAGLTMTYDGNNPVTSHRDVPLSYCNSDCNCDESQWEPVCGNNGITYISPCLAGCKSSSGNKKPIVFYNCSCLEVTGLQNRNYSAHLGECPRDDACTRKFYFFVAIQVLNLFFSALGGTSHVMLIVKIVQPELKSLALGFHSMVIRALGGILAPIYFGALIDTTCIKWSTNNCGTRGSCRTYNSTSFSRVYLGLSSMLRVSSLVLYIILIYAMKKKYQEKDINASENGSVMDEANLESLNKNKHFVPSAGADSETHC

[3] = molecular target: T2, human MATE1 (Homo sapiens, UniProt Q96FL8); assay: cell-based
T2 sequence (Q96FL8 1-570): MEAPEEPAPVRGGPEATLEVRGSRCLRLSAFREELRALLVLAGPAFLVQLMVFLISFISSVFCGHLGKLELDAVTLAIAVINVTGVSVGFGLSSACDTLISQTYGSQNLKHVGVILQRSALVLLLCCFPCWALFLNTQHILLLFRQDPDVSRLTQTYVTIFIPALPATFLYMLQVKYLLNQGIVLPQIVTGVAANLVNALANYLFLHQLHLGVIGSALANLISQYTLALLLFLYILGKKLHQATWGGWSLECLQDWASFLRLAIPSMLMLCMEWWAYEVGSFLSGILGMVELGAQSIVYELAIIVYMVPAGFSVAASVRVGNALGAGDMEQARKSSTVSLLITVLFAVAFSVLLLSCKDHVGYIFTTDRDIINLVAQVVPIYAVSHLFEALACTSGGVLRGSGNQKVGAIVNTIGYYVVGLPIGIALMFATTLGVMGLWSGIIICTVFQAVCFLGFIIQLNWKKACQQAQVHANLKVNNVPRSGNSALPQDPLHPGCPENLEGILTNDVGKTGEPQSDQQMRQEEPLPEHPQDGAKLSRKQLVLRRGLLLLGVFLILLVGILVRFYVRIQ

[4] = molecular target: human MATE2 (Homo sapiens, UniProt Q86VL8); assay: cell-based
Chain of human MATE2 (Q86VL8 1-566 isoform Q86VL8-3): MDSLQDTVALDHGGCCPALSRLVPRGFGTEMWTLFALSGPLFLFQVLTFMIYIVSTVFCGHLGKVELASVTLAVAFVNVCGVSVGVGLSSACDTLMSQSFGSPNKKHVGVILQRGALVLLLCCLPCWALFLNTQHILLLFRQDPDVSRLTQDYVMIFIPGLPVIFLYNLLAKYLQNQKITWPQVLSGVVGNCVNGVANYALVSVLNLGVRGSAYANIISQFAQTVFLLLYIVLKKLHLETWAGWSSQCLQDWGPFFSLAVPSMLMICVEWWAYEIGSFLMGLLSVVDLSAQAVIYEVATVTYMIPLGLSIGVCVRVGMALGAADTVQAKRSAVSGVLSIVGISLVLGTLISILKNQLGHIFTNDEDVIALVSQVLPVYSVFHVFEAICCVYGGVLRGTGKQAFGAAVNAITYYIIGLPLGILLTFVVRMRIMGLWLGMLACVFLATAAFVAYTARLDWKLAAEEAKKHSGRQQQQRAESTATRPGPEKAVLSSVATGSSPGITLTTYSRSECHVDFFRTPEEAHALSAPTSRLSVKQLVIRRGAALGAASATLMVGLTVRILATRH

[5] = molecular target: T3, human OAT3 (Homo sapiens, UniProt Q8TCC7); assay: cell-based
T3 sequence (Q8TCC7 1-542): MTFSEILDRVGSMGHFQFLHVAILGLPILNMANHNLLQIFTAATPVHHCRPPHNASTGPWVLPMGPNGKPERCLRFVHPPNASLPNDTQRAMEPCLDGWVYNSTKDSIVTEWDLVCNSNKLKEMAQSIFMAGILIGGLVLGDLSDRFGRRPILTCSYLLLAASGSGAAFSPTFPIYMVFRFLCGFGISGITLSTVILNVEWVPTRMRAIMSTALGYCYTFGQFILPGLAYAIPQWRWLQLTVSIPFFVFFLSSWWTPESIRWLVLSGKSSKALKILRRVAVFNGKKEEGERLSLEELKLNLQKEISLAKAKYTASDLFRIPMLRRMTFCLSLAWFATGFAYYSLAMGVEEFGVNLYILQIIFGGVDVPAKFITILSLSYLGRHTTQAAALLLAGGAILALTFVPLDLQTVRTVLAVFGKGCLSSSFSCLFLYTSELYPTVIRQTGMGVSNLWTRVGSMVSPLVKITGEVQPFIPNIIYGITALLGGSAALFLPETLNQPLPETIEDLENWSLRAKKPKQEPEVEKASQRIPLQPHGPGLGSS

[6] = molecular target: T3, human OAT3; settings: for Cu,max/IC50 OAT3: human
[7] = molecular target: T4, human OCT2 (Homo sapiens, UniProt O15244); assay: cell-based; settings: IC50 OCT2, experimental, mean ± SD; substrate metformin
T4 sequence (O15244 1-555): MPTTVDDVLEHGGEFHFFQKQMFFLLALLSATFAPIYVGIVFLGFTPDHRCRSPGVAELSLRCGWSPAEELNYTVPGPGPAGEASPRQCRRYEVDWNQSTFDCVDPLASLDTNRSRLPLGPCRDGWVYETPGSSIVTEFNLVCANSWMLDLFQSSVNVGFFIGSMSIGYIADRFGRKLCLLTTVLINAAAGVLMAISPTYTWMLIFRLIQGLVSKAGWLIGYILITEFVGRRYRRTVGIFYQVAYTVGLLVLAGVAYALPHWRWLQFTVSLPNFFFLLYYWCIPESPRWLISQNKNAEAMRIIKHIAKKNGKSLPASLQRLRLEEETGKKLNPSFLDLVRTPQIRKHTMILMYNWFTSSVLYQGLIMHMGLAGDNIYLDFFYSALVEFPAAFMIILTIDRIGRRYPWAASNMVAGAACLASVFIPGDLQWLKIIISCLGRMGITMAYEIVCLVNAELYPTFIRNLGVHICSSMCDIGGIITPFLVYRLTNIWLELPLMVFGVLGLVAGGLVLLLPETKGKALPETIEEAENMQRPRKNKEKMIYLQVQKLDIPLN

Row | SMILES | No. of transporters at major organ sites inhibited at clinical concentrations [1] | potency difference of the inhibitor for [3H]-EG vs [3H]-ES as OATP1B1 probes [2] | IC50 [3] | IC50 [4] | IC50 [5] | OAT3 inhibited more potently relative to OAT1 [6] | Cu,max/IC50 OAT3 [6] | IC50 [7] | Iu,in,max/IC50 OATP1B1 ([2]; human)
1 | CC(C)CN(C[C@@H](O)[C@H](Cc1ccccc1)NC(=O)O[C@H]1CO[C@H]2OCC[C@H]21)S(=O)(=O)c1ccc(N)cc1 [Darunavir] | 5 | > 10 fold | 43.8 ± 14.4 µM | 30.7 ± 20.2 µM | 37.9 ± 9.5 µM |  |  |  | 
2 | CCC(CC)COC(=O)[C@H](C)N[P@](=O)(OC[C@H]1O[C@@](C#N)(c2ccc3c(N)ncnn23)[C@H](O)[C@@H]1O)Oc1ccccc1 [Remdesivir] | 4 | > 10 fold | 0.4 ± 0.1 µM | 15.2 ± 9.7 µM | 14 ± 1.7 µM |  |  |  | 
3 | N#CC[C@H](C1CCCC1)n1cc(-c2ncnc3[nH]ccc23)cn1 [Ruxolitinib] | 1 |  | 0.7 ± 0.01 µM | 3.7 ± 2.3 µM | 6.1 ± 0.6 µM | ≥ 10 fold | 0.005 | 10.7 ± 3.7 µM | 
4 | CCCc1nn(C)c2c(=O)[nH]c(-c3cc(S(=O)(=O)N4CCN(C)CC4)ccc3OCC)nc12 [Sildenafil] | 4 |  | 2.4 ± 0.1 µM | 14.4 ± 1.3 µM | 20.5 ± 3.1 µM | ≥ 10 fold | 0.002 | 68 ± 20.1 µM | 
5 | CCOC(=O)c1c(CSc2ccccc2)n(C)c2cc(Br)c(O)c(CN(C)C)c12 [Umifenovir (Arbidol), Umifenovir] | 6 |  | 0.7 ± 0.2 µM | 4.1 ± 1.6 µM | 58.6 ± 21.9 µM |  | 0.002 | 14.9 ± 4.9 µM | 0.93
